What all share (conditions): lowest tested rate giving 80% or greater inhibition, approx. 14 days after planting and treating, greenhouse
One test has as its system SETFA. Put plainly: Pre-emergence herbicidal activity on SETFA (giant foxtail). The format is in vivo, Setaria faberi. An excerpt:
(§1) All such uses, and the biological activity enabling such uses, are embraced by the term “herbicidal” herein. Tables 15 and 16 summarize results of tests conducted as described below to determine the pre-emergence herbicidal activity, in the form of a GR80 value, of illustrative compounds of this invention. […] Where herbicidal activity was evident but 80% inhibition was not achieved at the highest rate tested (typically 1000 g/ha), an asterisk (*) is shown in the following tables. Herbicidal activity evident in the form of symptoms of phytotoxicity, in the absence of at least 80% inhibition at any rate, is indicated in the tables by “phyto”. A blank cell in the following tables indicates no herbicidal or phytotoxic response at any rate tested.
(§2) The pre-emergence tests were conducted by the following procedure. Topsoil was sieved to pass through a 1.27 cm screen. Fertilizer was added to the topsoil and the mixture was then sterilized by heating. The topsoil mixture was placed in a pot and compacted to a depth of 1.0 to 1.25 cm from the top of the pot. Seeds of each of several monocotyledonous and dicotyledonous annual plant species were placed on top of the soil. Additional soil was subsequently placed over the seeds to level-fill the pot. A known amount of each test compound dissolved or suspended in an appropriate organic solvent was diluted with a 50:50 mix of acetone and water and applied to the surface of the soil. After treatment the plants were placed in a greenhouse with a 30/21° C. day/night temperature regime where they received 0.64 cm of overhead irrigation. All subsequent watering consisted of a light overhead mist and/or subirrigation as needed for germination and growth.
(§3) Approximately 14 days after planting and treating, the plants were observed and herbicidal efficacy recorded as percent inhibition by comparison with untreated plants.
(§4) The plant species usually regarded as weeds which were utilized in the tests are identified in the tables below according to the following legend, in which “d” indicates a dicotyledonous species and “m” a monocotyledonous species. All monocotyledonous species included in the tests herein are grasses.

A further test deals with AMARE. Kind of test: Pre-emergence herbicidal activity on AMARE (redroot pigweed). The format is in vivo, Amaranthus retroflexus.
From the text: as §1, §2, §3, §4

The next test deals with PANMI. Put plainly: Pre-emergence herbicidal activity on PANMI (wild proso millet). It counts as in vivo, Panicum miliaceum.
From the text: as §1, §2, §3, §4

In the next test the test system is DIGSA. Put plainly: Pre-emergence herbicidal activity on DIGSA (large crabgrass). The format is in vivo, Digitaria sanguinalis.
From the text: as §1, §2, §3, §4

The next test deals with PANDI. Kind of test: Pre-emergence herbicidal activity on PANDI (fall panicum). It counts as in vivo, Panicum dichotomiflorum.
From the text: as §1, §2, §3, §4

In a further test the test system is CHEAL. Kind of test: Pre-emergence herbicidal activity on CHEAL (common lambsquarters). It counts as in vivo, Chenopodium album.
From the text: as §1, §2, §3, §4

The subject of another test is POROL. Put plainly: Pre-emergence herbicidal activity on POROL (common purslane). It counts as in vivo, Portulaca oleracea.
From the text: as §1, §2, §3, §4

The subject of another test is DATST. Kind of test: Pre-emergence herbicidal activity on DATST (jimsonweed). It counts as in vivo, Datura stramonium.
From the text: as §1, §2, §3, §4

In a further test the test system is SOLNI. Kind of test: Pre-emergence herbicidal activity on SOLNI (black nightshade). The format is in vivo, Solanum nigrum.
From the text: as §1, §2, §3, §4

The test system of the next test is CIRAR. Kind of test: Pre-emergence herbicidal activity on CIRAR (canada thistle, seedling). It counts as in vivo, Cirsium arvense.
From the text: as §1, §2, §3, §4

The subject of the next test is ABUTH. Put plainly: Pre-emergence herbicidal activity on ABUTH (velvetleaf). It counts as in vivo, Abutilon theophrasti.
From the text: as §1, §2, §3, §4

Eight compounds from patent US20020052295A1, “Diacyl derivatives of propylene diamine having herbicidal activity” (priority 1999, published 2002) can be followed below.

Each structure is given as a SMILES string.

Turning to `CC(CNC(=O)c1cccc(C(F)(F)F)c1)NC(=O)c1ccc(F)c(C(F)(F)F)c1` (stereo not drawn) [Example 6], in the test with SETFA, the “Pre-emergence activity (GR80) on SETFA” value is “phyto”. The “Pre-emergence activity (GR80) on AMARE” value with AMARE worked out at 1000 g/ha. Moreover, in the test with PANMI, the “Pre-emergence activity (GR80) on PANMI” value is on record as “phyto”. Moreover, the “Pre-emergence activity (GR80) on DIGSA” value in the test on DIGSA is reported as “phyto”. The “Pre-emergence activity (GR80) on PANDI” value in the test with PANDI was “phyto”.

Turning to `COc1c(C(=O)NC(C)CNC(=O)c2cccc(C(F)(F)F)c2)cccc1C(F)(F)F` (stereo not drawn) [Example 17], the “Pre-emergence activity (GR80) on SETFA” value in the test on SETFA is “phyto”. Moreover, in the test on CHEAL, the “Pre-emergence activity (GR80) on CHEAL” value is on record as 1000 g/ha. For the same compound, in the test on AMARE, the “Pre-emergence activity (GR80) on AMARE” value is reported as 1000 g/ha. In the test with POROL, the “Pre-emergence activity (GR80) on PORAL” value was determined as 1000 g/ha. In addition, the “Pre-emergence activity (GR80) on DATST” value in the test with DATST is given as “phyto”. Also, the “Pre-emergence activity (GR80) on DIGSA” value in the test with DIGSA was determined as 1000 g/ha. The “Pre-emergence activity (GR80) on PANDI” value with PANDI was “phyto”. Moreover, the “Pre-emergence activity (GR80) on SOLNI” value in the test on SOLNI is given as “phyto”.

On to `CC(CNC(=O)c1cccc(C(F)(F)F)c1)NC(=O)c1cccc(C(F)(F)F)c1OCc1ccccc1` (stereo not drawn) [Example 20], for which, in the test on CIRAR, the “Pre-emergence activity (GR80) on CIRAR” value is on record as “phyto”. Further, the “Pre-emergence activity (GR80) on CHEAL” value in the test on CHEAL was “phyto”. In addition, the “Pre-emergence activity (GR80) on AMARE” value in the test with AMARE came to 1000 g/ha. Moreover, the “Pre-emergence activity (GR80) on PANMI” value with PANMI is on record as “phyto”. In addition, the “Pre-emergence activity (GR80) on DIGSA” value with DIGSA is “phyto”. For the same compound, the “Pre-emergence activity (GR80) on PANDI” value in the test with PANDI is given as “phyto”.

In the case of `Cc1c(I)cccc1C(=O)NC(C)CNC(=O)c1cccc(C(F)(F)F)c1` (stereo not drawn) [Example 61], the “Pre-emergence activity (GR80) on CIRAR” value in the test on CIRAR came out at 250 g/ha. In addition, in the test with SETFA, the “Pre-emergence activity (GR80) on SETFA” value worked out at 1000 g/ha. Besides, the “Pre-emergence activity (GR80) on CHEAL” value with CHEAL is 1000 g/ha. Moreover, in the test with AMARE, the “Pre-emergence activity (GR80) on AMARE” value worked out at 750 g/ha. The “Pre-emergence activity (GR80) on PORAL” value in the test with POROL was 500 g/ha. Besides, the “Pre-emergence activity (GR80) on DATST” value in the test on DATST was 1000 g/ha. In addition, the “Pre-emergence activity (GR80) on ABUTH” value with ABUTH is reported as “* (Where herbicidal activity was evident but 80% inhibition was not achieved at the highest rate tested (typically 1000 g/ha), an asterisk (*) is shown)”. In the test on DIGSA, the “Pre-emergence activity (GR80) on DIGSA” value stood at 1000 g/ha. Besides, the “Pre-emergence activity (GR80) on PANDI” value in the test on PANDI turned out to be 750 g/ha. Further, the “Pre-emergence activity (GR80) on SOLNI” value in the test with SOLNI is 250 g/ha.

Consider `COc1c(C)cccc1C(=O)NC(C)CNC(=O)c1cccc(C(F)(F)F)c1` (stereo not drawn) [Example 68], for which the “Pre-emergence activity (GR80) on DIGSA” value in the test with DIGSA is “phyto”. Also, the “Pre-emergence activity (GR80) on PANDI” value with PANDI was “phyto”.

As to `CC(CNC(=O)c1cccc(Cl)c1)NC(=O)c1cccc(C(F)(F)F)c1F` (stereo not drawn) [Example 145], the “Pre-emergence activity (GR80) on CIRAR” value in the test on CIRAR came out at 125 g/ha. Besides, in the test with SETFA, the “Pre-emergence activity (GR80) on SETFA” value is 750 g/ha. Further, the “Pre-emergence activity (GR80) on CHEAL” value with CHEAL is listed as 125 g/ha. Besides, the “Pre-emergence activity (GR80) on AMARE” value in the test with AMARE worked out at 125 g/ha. Also, in the test on POROL, the “Pre-emergence activity (GR80) on PORAL” value is recorded as 125 g/ha. For the same compound, in the test on ABUTH, the “Pre-emergence activity (GR80) on ABUTH” value was 500 g/ha. Moreover, the “Pre-emergence activity (GR80) on DIGSA” value in the test with DIGSA amounted to 250 g/ha. Besides, in the test with PANDI, the “Pre-emergence activity (GR80) on PANDI” value was 500 g/ha. Besides, the “Pre-emergence activity (GR80) on SOLNI” value in the test with SOLNI was 1000 g/ha.

As to `Cc1c(Cl)cccc1C(=O)NCC(C)NC(=O)c1cccc(Cl)c1C` (stereo not drawn) [Example 203], in the test on CIRAR, the “Pre-emergence activity (GR80) on CIRAR” value is given as “phyto”. Also, the “Pre-emergence activity (GR80) on CHEAL” value with CHEAL came out at 1000 g/ha. Also, the “Pre-emergence activity (GR80) on DATST” value in the test with DATST was “phyto”. The “Pre-emergence activity (GR80) on ABUTH” value with ABUTH is reported as “phyto”. In addition, in the test with SOLNI, the “Pre-emergence activity (GR80) on SOLNI” value was “phyto”.

In the case of `CC(CNC(=O)c1cccc(C(F)(F)F)c1)NC(=O)c1c(-c2ccc(F)cc2Cl)noc1C(F)(F)Cl` (stereo not drawn) [Example 264], the “Pre-emergence activity (GR80) on CHEAL” value with CHEAL is given as 500 g/ha. For the same compound, the “Pre-emergence activity (GR80) on AMARE” value with AMARE is recorded as 250 g/ha. Also, the “Pre-emergence activity (GR80) on PORAL” value in the test with POROL came out at 500 g/ha. Also, in the test with DATST, the “Pre-emergence activity (GR80) on DATST” value was 1000 g/ha. In the test on PANDI, the “Pre-emergence activity (GR80) on PANDI” value is given as 1000 g/ha. In the test with SOLNI, the “Pre-emergence activity (GR80) on SOLNI” value worked out at 250 g/ha.
